This is an account of results in patent US5369113A, “Certain 2,3-diphenyl-2-(1,2,4-oxadiazol-5-yl)tropanes useful as dopamide reuptake inhibitors” (NeuroSearch A/S, priority 1992, dated 1994).

The subject of one data set is dopamine release. To be noted: background statement; cited from earlier work.
For data set [1] the following is noted: at every relevant dosing level tested.
From the text: The low intensity behavioural effects are here included into the locomotor and rearing syndrome.
The high intensity syndrome of stereotypy is here considered, if the behavioural repertoire of the rat becomes strongly restricted in variation and consists of the continuous repetition of one or a few items of behaviour.
The syndrome of stereotyped sniffing behaviour is thus performed continuously on only a small restricted area of the cage. […] During this stage of high intensity stereotypy all normal behavioural elements are absent including behaviour such as eating, drinking, grooming and normal explorative investigation of the environment. […] The rats are here usually sitting in a typical crouched posture in a corner of the cage. Backward locomotion may occasionally be observed.
The following rating scale is used for the high intensity stereotypy on the condition that the behavioural syndromes are as described above:
+=only stereotyped sniffing
++=stereotyped sniffing and episodic licking
+++=Continuous licking and/or biting gnawing

Turning to `COC(=O)[C@H]1[C@@H](OC(=O)c2ccccc2)C[C@@H]2CC[C@H]1N2C` [cocaine], the dopamine releasing properties result in the data set with dopamine release is “strong dopamine releasing properties”.
On to `COC(=O)[C@@H]1[C@@H](c2ccc(F)cc2)C[C@@H]2CC[C@H]1N2C` [trans isomer of Win 35,428, (1R,2R,3S)-2-carbomethoxy-3-(4-fluorophenyl)tropane], for which the “side effects as measured by abnormal stereotyped behaviour” value in data set [1] is recorded as “essentially or totally devoid of side effects”.
